Calls of active or inactive are those of the source.
Columns and labels:
[1] = molecular target: G-protein coupled receptor 55 (Homo sapiens, UniProt Q9Y2T6); test: inhibition of LPI-stimulated GPR55 beta-arrestin translocation – imaging, U2OS, beta-arrestin-GFP, LPI agonist, primary screen (AID 2013); format: functional;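 note: antagonist potency measured as reduced agonist-driven arrestin aggregation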
[2] = tested on: Streptococcus sp. 'group A'; test: Streptococcus pyogenes SK(-)GAS viability under kanamycin – luminescence, BacTiterGlo, confirmation, counter-screen for streptokinase expression inhibitor project, dose response (AID 1900); format: functional, organism-based
[3] = Luminescence Cell-Based Dose Response HTS to Identify Activators of Luciferase Translation or Activity in H4 […] Cells. [Related pubchem assays: 1829 (Project Summary), 1814 (Primary HTS)]; format: functional
Streptococcus = test: GAS UMAA2166 growth inhibition – luminescence, BacTiterGlo, counter-screen for streptokinase expression inhibitor project, dose response (AID 1915); format: functional, organism-based;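 note: potency for reduction of bacterial viability or growth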
H4 = test: Luminescence Cell-Based Dose Response HTS to Identify Activators of 5'UTR Stem-Loop Driven Prion Protein mRNA Translation in H4 Neuroglioblastoma Cells. [Related pubchem assays: 1829 (Project Summary), 1814 (Primary HTS)]; format: functional; conditions: Homo sapiens
Streptokinase A = molecular target: T1, Streptokinase A (Streptococcus pyogenes serotype M1, UniProt P10520); test: viability-normalized secreted streptokinase activity reduction – plasminogen activation absorbance, OD405, dose response (AID 1914); format: functional, Streptococcus pyogenes M1 GAS;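 note: secreted streptokinase activity via plasminogen activation per viability signal from cell pellet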
T1 sequence (P10520 whole entry): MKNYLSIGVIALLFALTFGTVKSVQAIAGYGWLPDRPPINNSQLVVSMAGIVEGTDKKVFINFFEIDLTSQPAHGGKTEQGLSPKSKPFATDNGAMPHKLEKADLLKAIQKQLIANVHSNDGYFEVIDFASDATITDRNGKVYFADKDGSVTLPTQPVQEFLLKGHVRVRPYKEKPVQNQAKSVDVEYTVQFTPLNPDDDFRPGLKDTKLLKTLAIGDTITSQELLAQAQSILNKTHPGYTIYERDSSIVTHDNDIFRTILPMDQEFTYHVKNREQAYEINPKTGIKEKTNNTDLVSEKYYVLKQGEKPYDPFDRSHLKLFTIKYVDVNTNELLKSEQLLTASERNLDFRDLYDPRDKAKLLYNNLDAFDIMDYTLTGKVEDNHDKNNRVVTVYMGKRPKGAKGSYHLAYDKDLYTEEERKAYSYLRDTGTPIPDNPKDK

[4] = viability of uninfected HEp-2 cells – cell-based, HTS, cytotoxicity control for RSV inhibitor project, dose response (AID 2410); format: functional; conditions: human respiratory syncytial virus
ORF 73 = molecular target: T2, ORF 73 (Human herpesvirus 8, UniProt O40947); test: KSHV LANA DNA-binding disruption – biochemical, fluorescence polarization, cherry-picked samples, dose response (AID 504725); parameters: species or system Human gammaherpesvirus 8;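 note: fluorescence polarization of a labeled DNA duplex reporting LANA DNA binding; potency is for inhibitors that block LANA binding to the DNA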
T2 sequence (O40947 whole entry): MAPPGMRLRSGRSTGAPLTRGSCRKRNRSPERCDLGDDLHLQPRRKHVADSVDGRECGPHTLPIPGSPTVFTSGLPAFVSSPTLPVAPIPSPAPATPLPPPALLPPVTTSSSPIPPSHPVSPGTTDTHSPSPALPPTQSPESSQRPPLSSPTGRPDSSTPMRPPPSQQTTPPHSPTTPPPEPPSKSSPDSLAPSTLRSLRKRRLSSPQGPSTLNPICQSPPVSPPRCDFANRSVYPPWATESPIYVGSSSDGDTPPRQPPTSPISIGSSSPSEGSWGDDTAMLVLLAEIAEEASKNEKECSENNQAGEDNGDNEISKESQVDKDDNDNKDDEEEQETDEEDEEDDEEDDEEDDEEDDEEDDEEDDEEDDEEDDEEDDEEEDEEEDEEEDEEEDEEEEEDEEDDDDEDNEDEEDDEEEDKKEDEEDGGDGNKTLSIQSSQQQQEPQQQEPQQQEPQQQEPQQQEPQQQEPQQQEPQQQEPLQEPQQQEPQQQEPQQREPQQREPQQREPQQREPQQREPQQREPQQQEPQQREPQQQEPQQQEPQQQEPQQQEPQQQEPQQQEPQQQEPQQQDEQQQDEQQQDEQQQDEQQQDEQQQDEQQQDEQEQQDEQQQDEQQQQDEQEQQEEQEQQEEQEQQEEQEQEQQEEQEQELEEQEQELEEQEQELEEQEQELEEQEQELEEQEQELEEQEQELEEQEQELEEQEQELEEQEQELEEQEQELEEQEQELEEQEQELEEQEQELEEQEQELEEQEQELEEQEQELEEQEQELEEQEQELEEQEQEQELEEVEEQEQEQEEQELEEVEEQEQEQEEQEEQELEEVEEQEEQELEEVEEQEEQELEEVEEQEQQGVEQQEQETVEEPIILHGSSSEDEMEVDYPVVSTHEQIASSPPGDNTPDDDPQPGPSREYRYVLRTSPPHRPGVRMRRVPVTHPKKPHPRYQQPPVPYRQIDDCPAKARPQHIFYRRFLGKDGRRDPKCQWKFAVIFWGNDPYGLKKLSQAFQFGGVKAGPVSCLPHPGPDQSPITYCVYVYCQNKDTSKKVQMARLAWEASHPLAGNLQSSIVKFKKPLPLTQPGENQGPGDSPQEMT

SUMO-activating enzyme = SUMO-activating enzyme (Homo sapiens, UniProt Q9UBT2); test: blockers of UBC9-mediated SUMO conjugation – biochemical, AlphaScreen, SUMOylation inhibitor project, confirmation (AID 2018); format: functional
SUMO-activating enzyme, sequence (Q9UBE0 whole entry): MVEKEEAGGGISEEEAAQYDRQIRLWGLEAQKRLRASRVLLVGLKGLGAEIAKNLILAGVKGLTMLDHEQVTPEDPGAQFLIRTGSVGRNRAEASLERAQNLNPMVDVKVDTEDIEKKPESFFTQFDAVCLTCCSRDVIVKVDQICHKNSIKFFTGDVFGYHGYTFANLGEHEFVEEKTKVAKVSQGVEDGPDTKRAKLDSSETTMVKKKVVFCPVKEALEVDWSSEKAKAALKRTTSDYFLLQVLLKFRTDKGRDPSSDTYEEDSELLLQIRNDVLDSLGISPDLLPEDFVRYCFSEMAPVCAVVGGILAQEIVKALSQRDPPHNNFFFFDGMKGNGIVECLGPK
SUMO-activating enzyme, sequence (Q9UBT2 whole entry): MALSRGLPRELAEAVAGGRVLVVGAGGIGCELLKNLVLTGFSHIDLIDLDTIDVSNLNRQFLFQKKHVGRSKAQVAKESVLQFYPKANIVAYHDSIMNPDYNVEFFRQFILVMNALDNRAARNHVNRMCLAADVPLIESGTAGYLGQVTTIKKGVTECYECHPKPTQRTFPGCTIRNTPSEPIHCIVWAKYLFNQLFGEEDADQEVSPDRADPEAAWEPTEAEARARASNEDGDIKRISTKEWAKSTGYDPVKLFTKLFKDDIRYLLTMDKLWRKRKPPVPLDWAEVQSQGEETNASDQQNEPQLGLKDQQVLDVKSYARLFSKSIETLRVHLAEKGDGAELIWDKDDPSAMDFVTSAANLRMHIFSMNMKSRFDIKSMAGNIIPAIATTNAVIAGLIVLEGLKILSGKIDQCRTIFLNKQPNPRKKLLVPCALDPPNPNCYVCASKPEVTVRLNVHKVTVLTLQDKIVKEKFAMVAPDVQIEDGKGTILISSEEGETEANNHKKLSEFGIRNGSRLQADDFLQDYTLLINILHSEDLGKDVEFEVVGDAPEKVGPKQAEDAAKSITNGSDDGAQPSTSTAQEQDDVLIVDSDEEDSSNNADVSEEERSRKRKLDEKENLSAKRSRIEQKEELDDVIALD

Coagulation factor XII = molecular target: T3, Coagulation factor XII (Homo sapiens, UniProt P00748); format: functional;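 note: activated factor XIIa alpha cleaving a fluorogenic AMC peptide substrate; inhibitor potency from loss of enzyme activity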
T3 sequence (P00748 whole entry): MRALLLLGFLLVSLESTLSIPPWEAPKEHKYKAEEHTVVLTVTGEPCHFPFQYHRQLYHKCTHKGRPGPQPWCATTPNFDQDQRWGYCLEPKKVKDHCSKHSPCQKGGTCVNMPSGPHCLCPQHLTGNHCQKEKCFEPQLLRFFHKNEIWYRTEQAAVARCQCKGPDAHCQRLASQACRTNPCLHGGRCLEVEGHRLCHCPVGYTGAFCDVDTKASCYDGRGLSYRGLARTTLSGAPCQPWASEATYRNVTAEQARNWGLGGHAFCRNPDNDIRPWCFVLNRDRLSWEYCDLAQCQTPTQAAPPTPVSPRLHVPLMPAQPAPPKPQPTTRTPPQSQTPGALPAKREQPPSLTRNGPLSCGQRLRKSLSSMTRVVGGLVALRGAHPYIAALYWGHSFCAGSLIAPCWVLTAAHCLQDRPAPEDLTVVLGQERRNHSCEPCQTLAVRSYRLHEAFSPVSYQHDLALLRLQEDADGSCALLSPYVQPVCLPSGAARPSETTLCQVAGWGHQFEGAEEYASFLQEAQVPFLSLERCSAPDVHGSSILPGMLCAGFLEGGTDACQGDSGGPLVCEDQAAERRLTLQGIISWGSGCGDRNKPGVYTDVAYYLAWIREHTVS

[5] = molecular target: T4, Alkaline phosphatase, tissue-nonspecific isozyme (Homo sapiens, UniProt P05186); test: potency against alkaline phosphatase TNAP – biochemical, luminescent, dose response, SAR follow-up (AID 1056)
T4 sequence (P05186 whole entry): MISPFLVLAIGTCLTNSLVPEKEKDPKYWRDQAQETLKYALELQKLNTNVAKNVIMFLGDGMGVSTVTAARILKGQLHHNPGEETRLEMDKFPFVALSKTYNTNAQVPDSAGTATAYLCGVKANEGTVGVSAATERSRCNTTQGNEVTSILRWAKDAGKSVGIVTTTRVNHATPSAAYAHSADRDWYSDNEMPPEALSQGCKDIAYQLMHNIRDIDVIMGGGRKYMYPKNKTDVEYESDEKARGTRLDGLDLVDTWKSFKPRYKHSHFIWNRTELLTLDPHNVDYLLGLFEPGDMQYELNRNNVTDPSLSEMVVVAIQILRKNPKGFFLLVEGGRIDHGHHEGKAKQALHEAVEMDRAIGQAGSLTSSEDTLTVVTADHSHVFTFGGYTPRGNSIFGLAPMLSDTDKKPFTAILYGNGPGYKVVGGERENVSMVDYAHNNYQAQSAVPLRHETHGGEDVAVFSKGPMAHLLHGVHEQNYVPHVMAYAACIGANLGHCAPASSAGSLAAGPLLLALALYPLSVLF

[6] = molecular target: Glyceraldehyde-3-phosphate dehydrogenase (Homo sapiens, UniProt P04406)
Glyceraldehyde-3-phosphate dehydrogenase, sequence (P04406 whole entry): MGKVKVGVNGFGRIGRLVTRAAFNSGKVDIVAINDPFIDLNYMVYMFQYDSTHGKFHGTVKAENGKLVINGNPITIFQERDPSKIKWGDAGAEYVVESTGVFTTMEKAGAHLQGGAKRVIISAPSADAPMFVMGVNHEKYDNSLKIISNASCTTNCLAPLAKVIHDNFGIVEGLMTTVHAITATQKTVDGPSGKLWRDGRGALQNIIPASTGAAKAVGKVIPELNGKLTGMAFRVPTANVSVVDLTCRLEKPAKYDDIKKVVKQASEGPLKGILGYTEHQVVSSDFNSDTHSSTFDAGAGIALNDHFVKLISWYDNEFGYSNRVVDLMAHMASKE

Prothrombin = Prothrombin (Homo sapiens, UniProt P00734); test: Thrombin 1536 HTS Dose Response Confirmation. [Related pubchem assays: 1046 (Thrombin 1536 HTS; hits were confirmed in this assay)]; format: functional
Protein RecA = molecular target: T5, Protein RecA (Mycobacterium tuberculosis, UniProt P9WHJ3); test: Fluorescence Cell-Free Homogeneous Dose Retest to Identify Inhibitors of RecA-Intein Splicing Activity. [Related pubchem assays (depositor defined):AID2097, AID2223, AID489010, AID492950]; format: functional
T5 sequence (P9WHJ3 whole entry): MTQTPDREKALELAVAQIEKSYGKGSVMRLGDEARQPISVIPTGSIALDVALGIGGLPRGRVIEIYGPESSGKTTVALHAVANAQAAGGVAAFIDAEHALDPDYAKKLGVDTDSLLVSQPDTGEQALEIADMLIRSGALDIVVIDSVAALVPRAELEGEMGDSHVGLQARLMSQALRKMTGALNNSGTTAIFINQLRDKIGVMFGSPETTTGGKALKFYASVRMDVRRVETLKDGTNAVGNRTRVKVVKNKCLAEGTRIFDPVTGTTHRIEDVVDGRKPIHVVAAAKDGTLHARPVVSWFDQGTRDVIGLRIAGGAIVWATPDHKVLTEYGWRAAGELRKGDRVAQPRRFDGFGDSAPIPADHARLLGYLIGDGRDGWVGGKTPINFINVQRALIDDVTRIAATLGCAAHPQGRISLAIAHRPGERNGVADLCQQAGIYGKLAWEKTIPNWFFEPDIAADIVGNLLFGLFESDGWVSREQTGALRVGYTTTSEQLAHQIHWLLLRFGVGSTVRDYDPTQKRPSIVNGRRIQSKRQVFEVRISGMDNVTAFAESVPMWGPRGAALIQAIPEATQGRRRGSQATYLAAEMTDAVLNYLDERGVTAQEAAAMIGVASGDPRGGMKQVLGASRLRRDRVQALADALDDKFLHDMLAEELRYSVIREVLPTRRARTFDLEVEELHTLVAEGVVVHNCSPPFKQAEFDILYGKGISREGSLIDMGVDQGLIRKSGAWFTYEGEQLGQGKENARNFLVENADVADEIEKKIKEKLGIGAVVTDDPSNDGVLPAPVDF

Nonstructural protein 1 = Nonstructural protein 1 (Influenza A virus, UniProt Q194T2); format: functional, Influenza A virus (A/California/07/2009(H1N1))
Nonstructural protein 1, sequence (Q194T2 whole entry): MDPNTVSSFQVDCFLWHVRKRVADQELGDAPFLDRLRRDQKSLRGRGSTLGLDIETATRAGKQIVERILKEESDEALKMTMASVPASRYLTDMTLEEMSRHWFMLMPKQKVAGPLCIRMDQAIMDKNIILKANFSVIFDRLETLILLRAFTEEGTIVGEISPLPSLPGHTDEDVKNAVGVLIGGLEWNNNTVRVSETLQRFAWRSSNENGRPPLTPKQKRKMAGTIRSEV

[7] = molecular target: T6, Replicative DNA helicase DnaB (Mycobacterium tuberculosis, UniProt P9WMR3); test: DnaB intein splicing inhibitors, dose response, biochemical, cell-free fluorescence (AID 449749); format: functional
T6 sequence (P9WMR3 whole entry): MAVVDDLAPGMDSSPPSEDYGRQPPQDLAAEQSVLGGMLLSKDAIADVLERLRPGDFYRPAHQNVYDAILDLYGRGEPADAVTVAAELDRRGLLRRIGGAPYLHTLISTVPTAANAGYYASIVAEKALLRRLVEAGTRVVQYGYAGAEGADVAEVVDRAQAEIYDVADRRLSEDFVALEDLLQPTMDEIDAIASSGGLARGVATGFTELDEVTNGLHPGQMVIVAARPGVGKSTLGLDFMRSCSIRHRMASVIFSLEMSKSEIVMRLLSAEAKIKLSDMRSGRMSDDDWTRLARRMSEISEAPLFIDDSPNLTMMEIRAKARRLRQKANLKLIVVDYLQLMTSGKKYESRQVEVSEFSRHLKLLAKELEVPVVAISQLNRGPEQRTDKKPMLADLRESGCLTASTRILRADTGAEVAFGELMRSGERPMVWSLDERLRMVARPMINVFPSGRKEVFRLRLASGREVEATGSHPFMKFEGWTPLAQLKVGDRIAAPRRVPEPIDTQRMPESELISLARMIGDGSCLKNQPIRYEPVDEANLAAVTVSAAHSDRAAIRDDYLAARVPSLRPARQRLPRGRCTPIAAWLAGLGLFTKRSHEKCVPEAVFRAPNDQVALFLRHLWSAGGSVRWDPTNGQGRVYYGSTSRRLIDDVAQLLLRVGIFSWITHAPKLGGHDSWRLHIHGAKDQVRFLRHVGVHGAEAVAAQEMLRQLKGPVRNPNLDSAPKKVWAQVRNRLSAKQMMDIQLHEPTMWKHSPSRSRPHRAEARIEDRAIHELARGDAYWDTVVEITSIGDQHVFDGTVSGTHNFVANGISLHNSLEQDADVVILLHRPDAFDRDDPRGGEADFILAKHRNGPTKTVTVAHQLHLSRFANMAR

G-protein coupled receptor 55, sequence (Q9Y2T6 whole entry): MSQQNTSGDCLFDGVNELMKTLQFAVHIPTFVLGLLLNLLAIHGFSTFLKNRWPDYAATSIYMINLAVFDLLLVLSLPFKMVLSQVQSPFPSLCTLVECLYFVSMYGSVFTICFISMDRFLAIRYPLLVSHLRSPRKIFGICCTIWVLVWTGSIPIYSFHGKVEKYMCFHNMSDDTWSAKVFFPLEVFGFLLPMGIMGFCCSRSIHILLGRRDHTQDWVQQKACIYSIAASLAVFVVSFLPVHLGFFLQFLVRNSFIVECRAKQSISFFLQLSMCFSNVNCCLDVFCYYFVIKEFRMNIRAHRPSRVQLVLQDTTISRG

With `N=C1S/C(=C\c2cn[nH]c2-c2ccc(F)cc2)C(=O)N1c1ccccc1F` the IC50 [1] was < 0.5 µM (active), the EC50 [2] was 4.49 µM (active) and the EC50 [3] was 8.92 µM (active). The EC50 (Streptococcus) was 38.9 µM (active), the EC50 (H4) was > 120 µM (not active) and the EC50 (Streptokinase A) was > 150 µM (not active). For the same compound, the CC50 [4] was 20.2 µM (active).
With `CC(Oc1ccccc1)c1nnc(N)s1` (configuration not stated) the AC50 (ORF 73) was 53 µM (active).
For `O=C(Nc1ccc(Br)cc1)c1ccc(N2C(=O)C3CC=C(Cl)CC3C2=O)cc1` (configuration not stated), the IC50 (SUMO-activating enzyme) was 49.7 µM (active).
With `CC1=C(C(=O)OCC2CCCO2)C(c2ccc(C)o2)C2=C(O)CC(c3ccc(F)cc3)CC2=N1` (configuration not stated) the IC50 (Coagulation factor XII) was > 50 µM (inactive).
For `Cc1cc(C(=O)NCCc2ccc(O)c(O)c2)oc1C`, the IC50 [5] was 57.3 µM (active).
In the case of `CCOc1ccc(C)cc1S(=O)(=O)Nc1cccnc1`, the IC50 [5] is reported as 0.858 µM (active) and the IC50 [6] is reported as > 10 µM (inconclusive).
For `CN(Cc1ccccn1)Cc1nc(-c2ccc(Cl)cc2)no1`, the IC50 (Coagulation factor XII) was > 50 µM (inactive) and the IC50 (Prothrombin) was > 50 µM (not active).
With `Clc1ccc(-c2noc(CSc3nnc(Cc4cccs4)n3-c3ccccc3)n2)cc1` the IC50 [1] was 2.67 µM (active).
In the case of `COc1ccc2nc3ccccc3nc2c1N`, the EC50 (Protein RecA) is reported as 22.1 µM (active), the IC50 (Coagulation factor XII) is reported as > 50 µM (inactive) and the IC50 (Nonstructural protein 1) is reported as 32.5 µM (active). The AC50 [7] was 40.1 µM (active).
With `O=C(O)c1ccc(-c2ccccc2Cl)o1` the IC50 [5] was > 100 µM (inactive) and the IC50 [6] was > 100 µM (not active).

Reference: ChEMBL document CHEMBL1201862, “PubChem BioAssay data set” (2004)
